Results reported in patent US20240116985A1, “STAPLED PEPTIDES AND METHODS THEREOF” (priority 2020, published 2024).
pIC50: −log10 of the molar value. In brackets after ≈: the same amount, converted by molar mass. Read-outs that look alike come from different tables or passages of the source.

Tests used:
[1] = molecular target: T1, full-length beta-Catenin (Uniprot ID P35222) (Homo sapiens, UniProt P35222); test: Fluorescence polarization IC50 (beta-catenin / 5FAM-TCF4 10-53 competition); format: binding
T1 construct: 10 nM full-length beta-Catenin (Uniprot ID P35222)
T1 sequence (P35222 1-781): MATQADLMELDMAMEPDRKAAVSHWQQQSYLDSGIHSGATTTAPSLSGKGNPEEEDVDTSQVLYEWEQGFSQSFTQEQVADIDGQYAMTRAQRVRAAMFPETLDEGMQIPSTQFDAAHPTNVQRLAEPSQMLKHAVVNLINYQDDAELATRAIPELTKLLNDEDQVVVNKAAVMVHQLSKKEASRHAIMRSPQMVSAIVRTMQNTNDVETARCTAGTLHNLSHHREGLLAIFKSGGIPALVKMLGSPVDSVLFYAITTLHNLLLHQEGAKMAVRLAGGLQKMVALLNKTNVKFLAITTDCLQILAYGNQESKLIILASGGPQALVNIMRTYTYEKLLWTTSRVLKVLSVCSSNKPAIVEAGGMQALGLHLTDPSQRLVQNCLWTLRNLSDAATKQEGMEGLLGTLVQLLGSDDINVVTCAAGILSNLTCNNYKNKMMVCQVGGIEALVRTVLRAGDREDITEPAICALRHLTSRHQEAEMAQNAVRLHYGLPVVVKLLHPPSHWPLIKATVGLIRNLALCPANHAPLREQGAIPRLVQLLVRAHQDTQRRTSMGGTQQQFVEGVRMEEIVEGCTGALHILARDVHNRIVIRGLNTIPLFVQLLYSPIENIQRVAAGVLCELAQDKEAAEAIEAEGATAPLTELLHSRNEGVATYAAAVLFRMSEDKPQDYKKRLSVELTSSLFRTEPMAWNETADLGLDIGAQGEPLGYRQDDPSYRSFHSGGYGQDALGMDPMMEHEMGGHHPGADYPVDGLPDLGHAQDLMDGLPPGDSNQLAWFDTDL

[2] = CHI Log D procedure; format: physicochemical; settings: for chromatographic logD: pH 7.4, CHI Log D; for CHI Log D: pH 7.4
[3] = Solubility in PBS; format: physicochemical
Outline: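 HPLC quantitation of peptide remaining in the PBS supernatant after ultracentrifugation, referenced to a 50 μM solution in DMSO.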

[4] = fluorescence polarization, read-out: beta-Catenin FP IC50

| Compound | pIC50 [1, 4] | chromatographic logD [2] | Solubility ([3]; Solubility (uM)) [µM] | pIC50 ([1]; read-out: FP EC50) | CHI Log D [2] | Solubility [3] [µM] |
| --- | --- | --- | --- | --- | --- | --- |
| CC[C@H](C)[C@@H]1NC(=O)[C@H](CC(=O)O)NC(=O)[C@]2(CC=CCCCC3(CCCC=CCCCCCC[C@@](C)(C(=O)N[C@@H](Cc4ccccc4)C(=O)N[C@@H](Cc4csc5ccccc45)C(=O)N[C@@H](CCC(N)=O)C(N)=O)NC(=O)[C@H](CCC(N)=O)NC(=O)[C@H](CC(C)(C)C)NC(=O)[C@H](C)NC(=O)[C@H](C)NC(=O)[C@H](CCC(=O)O)NC(=O)[C@H](CC(=O)O)NC3=O)NC1=O)CCCN2C(C)=O (stereo partly drawn) [I-727, Ac-PL3-Asp-Ile-B5-Asp-Glu-Ala-Ala-Npg-Gln-S8-Phe-BztA-Gln-NH2] | 5.30 | 2.41 | 26 (≈ 48.4 µg/mL) |  |  |  |
| CCCC[C@@H]1NC(=O)[C@H](C)NC(=O)[C@H](C)NC(=O)[C@H](CCC(=O)O)NC(=O)[C@H](CC(=O)O)NC(=O)C2(CCCC=CCCCCCC[C@@](C)(C(=O)N[C@@H](Cc3ccccc3)C(=O)N[C@@H](Cc3csc4ccccc34)C(=O)N[C@@H](CCC(N)=O)C(N)=O)NC(=O)[C@H](CCC(N)=O)NC1=O)CCCC=CC[C@]1(CCCN1C(C)=O)C(=O)N[C@@H](CC(=O)O)C(=O)N[C@@H]([C@@H](C)CC)C(=O)N2 (stereo partly drawn) [I-728, Ac-PL3-Asp-Ile-B5-Asp-Glu-Ala-Ala-nLeu-Gln-S8-Phe-BztA-Gln-NH2] | 6.54 | 2.35 | 38 (≈ 70.3 µg/mL) |  |  |  |
| CC[C@H](C)[C@H](NC(=O)[C@H](CCC(N)=O)NC(=O)[C@H](Cc1csc2ccccc12)NC(=O)[C@H](Cc1ccccc1)NC(=O)[C@]1(C)CCCCCCC=CCCCC2(CCCC=CC[C@]3(CCCN3C(C)=O)C(=O)N[C@@H](CC(=O)O)C(=O)N[C@@H](CC(C)C)C(=O)N2)C(=O)N[C@@H](CC(=O)O)C(=O)N[C@@H](CCC(=O)O)C(=O)N[C@@H](C)C(=O)N[C@@H](C)C(=O)N[C@@H](Cc2ccccc2)C(=O)N[C@@H](CC(N)=O)C(=O)N1)C(N)=O (stereo partly drawn) [I-733, Ac-PL3-Asp-Leu-B5-Asp-Glu-Ala-Ala-Phe-Asn-S8-Phe-BztA-Gln-Ile-NH2] | 5.37 |  |  | 5.37 | 2.154 | 43 (≈ 85.2 µg/mL) |
| CC[C@@H](C)[C@@H](NC(=O)[C@H](CCC(N)=O)NC(=O)[C@H](Cc1csc2ccccc12)NC(=O)[C@H](Cc1ccccc1)NC(=O)[C@]1(C)CCCCCCC=CCCCC2(CCCC=CC[C@]3(CCCN3C(C)=O)C(=O)N[C@@H](CC(=O)O)C(=O)N[C@@H](CC(C)C)C(=O)N2)C(=O)N[C@@H](CC(=O)O)C(=O)N[C@@H](CCC(=O)O)C(=O)N[C@@H](C)C(=O)N[C@@H](C)C(=O)N[C@@H](Cc2ccccc2)C(=O)N[C@@H](CC(N)=O)C(=O)N1)C(N)=O (stereo partly drawn) [I-735, Ac-PL3-Asp-Leu-B5-Asp-Glu-Ala-Ala-Phe-Asn-S8-Phe-BztA-Gln-dIle-NH2] | 6.61 |  |  | 6.61 | 2.738 | 43 (≈ 85.2 µg/mL) |
| CC(=O)N1CCC[C@]12CC=CCCCC1(CCCC=CCCCCCC[C@@](C)(C(=O)N[C@@H](Cc3ccccc3)C(=O)N[C@@H](Cc3csc4ccccc34)C(=O)N[C@@H](CCC(N)=O)C(=O)NC(C)(C)C(N)=O)NC(=O)[C@H](CC(N)=O)NC(=O)[C@H](Cc3ccccc3)NC(=O)[C@H](C)NC(=O)[C@H](C)NC(=O)[C@H](CCC(=O)O)NC(=O)[C@H](CC(=O)O)NC1=O)NC(=O)[C@H](CC(C)C)NC(=O)[C@H](CC(=O)O)NC2=O (stereo partly drawn) [I-737, Ac-PL3-Asp-Leu-B5-Asp-Glu-Ala-Ala-Phe-Asn-S8-Phe-BztA-Gln-Aib-NH2] | 6.45 | 2.73 | 44 (≈ 86 µg/mL) |  |  |  |
| CC(=O)N1CCC[C@]12CC=CCCCC1(CCCC=CCCCCCC[C@@](C)(C(=O)N[C@@H](Cc3ccccc3)C(=O)N[C@@H](Cc3csc4ccccc34)C(=O)N[C@@H](Cc3c[nH]cn3)C(=O)N[C@@H](C)C(N)=O)NC(=O)[C@H](CC(N)=O)NC(=O)[C@H](Cc3ccccc3)NC(=O)[C@H](C)NC(=O)[C@H](C)NC(=O)[C@H](CCC(=O)O)NC(=O)[C@H](CC(=O)O)NC1=O)NC(=O)[C@H](CC(C)C)NC(=O)[C@H](CC(=O)O)NC2=O (stereo partly drawn) [I-738, Ac-PL3-Asp-Leu-B5-Asp-Glu-Ala-Ala-Phe-Asn-S8-Phe-BztA-His-Ala-NH2] | 7.20 | 2.46 | 41 (≈ 79.9 µg/mL) |  |  |  |
| CC(=O)N1CCC[C@]12CC=CCCCC1(CCCC=CCCCCCC[C@@](C)(C(=O)N[C@@H](Cc3ccccc3)C(=O)N[C@@H](Cc3csc4ccccc34)C(=O)N[C@@H](Cc3c[nH]cn3)C(=O)N[C@H](C)C(N)=O)NC(=O)[C@H](CC(N)=O)NC(=O)[C@H](Cc3ccccc3)NC(=O)[C@H](C)NC(=O)[C@H](C)NC(=O)[C@H](CCC(=O)O)NC(=O)[C@H](CC(=O)O)NC1=O)NC(=O)[C@H](CC(C)C)NC(=O)[C@H](CC(=O)O)NC2=O (stereo partly drawn) [I-739, Ac-PL3-Asp-Leu-B5-Asp-Glu-Ala-Ala-Phe-Asn-S8-Phe-BztA-His-dAla-NH2] | 7.28 | 2.41 |  |  |  | 10 (≈ 19.5 µg/mL) |
| CC[C@H](C)[C@H](NC(=O)[C@H](Cc1c[nH]cn1)NC(=O)[C@H](Cc1csc2ccccc12)NC(=O)[C@H](Cc1ccccc1)NC(=O)[C@]1(C)CCCCCCC=CCCCC2(CCCC=CC[C@]3(CCCN3C(C)=O)C(=O)N[C@@H](CC(=O)O)C(=O)N[C@@H](CC(C)C)C(=O)N2)C(=O)N[C@@H](CC(=O)O)C(=O)N[C@@H](CCC(=O)O)C(=O)N[C@@H](C)C(=O)N[C@@H](C)C(=O)N[C@@H](Cc2ccccc2)C(=O)N[C@@H](CC(N)=O)C(=O)N1)C(N)=O (stereo partly drawn) [I-741, Ac-PL3-Asp-Leu-B5-Asp-Glu-Ala-Ala-Phe-Asn-S8-Phe-BztA-His-Ile-NH2] | 6.65 |  |  | 6.65 | 2.915 | 10 (≈ 19.9 µg/mL) |
| CC[C@@H](C)[C@@H](NC(=O)[C@H](Cc1c[nH]cn1)NC(=O)[C@H](Cc1csc2ccccc12)NC(=O)[C@H](Cc1ccccc1)NC(=O)[C@]1(C)CCCCCCC=CCCCC2(CCCC=CC[C@]3(CCCN3C(C)=O)C(=O)N[C@@H](CC(=O)O)C(=O)N[C@@H](CC(C)C)C(=O)N2)C(=O)N[C@@H](CC(=O)O)C(=O)N[C@@H](CCC(=O)O)C(=O)N[C@@H](C)C(=O)N[C@@H](C)C(=O)N[C@@H](Cc2ccccc2)C(=O)N[C@@H](CC(N)=O)C(=O)N1)C(N)=O (stereo partly drawn) [I-742, Ac-PL3-Asp-Leu-B5-Asp-Glu-Ala-Ala-Phe-Asn-S8-Phe-BztA-His-dIle-NH2] | 6.80 | 2.8 | 27 (≈ 53.8 µg/mL) |  |  |  |
| CC(=O)N1CCC[C@]12CC=CCCCC1(CCCC=CCCCCCC[C@@](C)(C(=O)N[C@@H](Cc3ccccc3)C(=O)N[C@@H](Cc3csc4ccccc34)C(=O)N[C@@H](Cc3c[nH]cn3)C(=O)NC(C)(C)C(N)=O)NC(=O)[C@H](CC(N)=O)NC(=O)[C@H](Cc3ccccc3)NC(=O)[C@H](C)NC(=O)[C@H](C)NC(=O)[C@H](CCC(=O)O)NC(=O)[C@H](CC(=O)O)NC1=O)NC(=O)[C@H](CC(C)C)NC(=O)[C@H](CC(=O)O)NC2=O (stereo partly drawn) [I-743, Ac-PL3-Asp-Leu-B5-Asp-Glu-Ala-Ala-Phe-Asn-S8-Phe-BztA-His-Aib-NH2] | 7.07 | 2.6 | 29 (≈ 56.9 µg/mL) |  |  |  |
| CC(=O)N1CCC[C@]12CC=CCCCC1(CCCC=CCCCCCC[C@@](C)(C(=O)N[C@@H](Cc3ccccc3)C(=O)N[C@@H](Cc3csc4ccccc34)C(=O)N[C@H](Cc3c[nH]cn3)C(N)=O)NC(=O)[C@H](CC(N)=O)NC(=O)[C@H](Cc3ccccc3)NC(=O)[C@H](C)NC(=O)[C@H](C)NC(=O)[C@H](CCC(=O)O)NC(=O)[C@H](CC(=O)O)NC1=O)NC(=O)[C@H](CC(C)C)NC(=O)[C@H](CC(=O)O)NC2=O (stereo partly drawn) [I-745, Ac-PL3-Asp-Leu-B5-Asp-Glu-Ala-Ala-Phe-Asn-S8-Phe-BztA-dHis-NH2] | 7.10 |  |  | 7.10 | 2.61 | 10 (≈ 18.8 µg/mL) |
| CC(=O)N1CCC[C@]12CC=CCCCC1(CCCC=CCCCCCC[C@@](C)(C(=O)N[C@@H](Cc3ccccc3)C(=O)N[C@@H](Cc3csc4ccccc34)C(=O)N(C)[C@@H](Cc3cnc[nH]3)C(N)=O)NC(=O)[C@H](CC(N)=O)NC(=O)[C@H](Cc3ccccc3)NC(=O)[C@H](C)NC(=O)[C@H](C)NC(=O)[C@H](CCC(=O)O)NC(=O)[C@H](CC(=O)O)NC1=O)NC(=O)[C@H](CC(C)C)NC(=O)[C@H](CC(=O)O)NC2=O (stereo partly drawn) [I-747, Ac-PL3-Asp-Leu-B5-Asp-Glu-Ala-Ala-Phe-Asn-S8-Phe-BztA-NMeHis-NH2] | 5.62 |  |  | 5.62 | 2.492 | 15 (≈ 28.4 µg/mL) |
